How the values were obtained:
[1] = biological target: Tyrosine-protein kinase receptor UFO (Homo sapiens) (UniProt P30530); settings: dose 100.0 nM
Description: Inhibition of AXL (unknown origin) at 100 nM by envision reader analysis relative to control

[2] = Cytotoxicity against mouse NIH/3T3 cells assessed as cell viability incubated for 72 hrs by MTT assay; assay type: toxicity, cell-based, NIH3T3
[3] = Clearance in Sprague-Dawley rat at 5 mg/kg, iv; assay type: ADME, organism-based; settings: in vivo
[4] = test system: Osimertinib-resistant NCI-H1975 cell; assay: cells; settings: Homo sapiens, 72 h
PC-9 = assay: cells; settings: Homo sapiens, PC-9, 72 h
Description: Antiproliferative activity against human PC-9 cells assessed as cell viability incubated for 72 hrs by MTT assay

[5] = AUC (0 to last) in Sprague-Dawley rat at 5 mg/kg, iv; assay type: ADME, organism-based; settings: in vivo, iv, 5 mg/kg
NCI-H1975 = assay: cells; settings: Homo sapiens, NCI-H1975, 72 h
Description: Antiproliferative activity against human NCI-H1975 cells assessed as cell viability incubated for 72 hrs by MTT assay

SW480 = assay: cells; settings: Homo sapiens, SW480, 72 h
Description: Antiproliferative activity against human SW480 cells assessed as cell viability incubated for 72 hrs by MTT assay

[6] = Tmax in Sprague-Dawley rat at 50 mg/kg, po; assay type: ADME, organism-based; settings: in vivo
[7] = Metabolic stability in rat liver microsome assessed as half life measured upto 240 mins by HPLC analysis; assay type: ADME; settings: liver microsomes
MKN-45 = assay: cells; settings: Homo sapiens, MKN-45, 72 h
Description: Antiproliferative activity against human MKN-45 cells assessed as cell viability incubated for 72 hrs by MTT assay

A549/TR = assay: cells; settings: Homo sapiens, 72 h
Description: Antiproliferative activity against human A549/Taxol cells assessed as cell viability incubated for 72 hrs by MTT assay

[8] = Cytotoxicity against human HK-2 cells assessed as inhibition of cell growth; assay type: toxicity, cell-based
BXPC-3 [9] = assay: Antitumor activity against human BXPC-3 cells xenografted in mouse assessed as tumor growth inhibition at 50 mg/kg, po administered for 14 days; assay type: functional; settings: BXPC-3, 336 h, time 14 day, read-out: TGI
[10] = Half life in Sprague-Dawley rat at 50 mg/kg, po; assay type: ADME, organism-based; settings: in vivo
[11] = Oral bioavailability in Sprague-Dawley rat at 50 mg/kg; assay type: ADME, organism-based; settings: in vivo, po, 50 mg/kg
[12] = Cytotoxicity against human HEK293 cells assessed as inhibition of cell growth; assay type: toxicity, cell-based
[13] = Cytotoxicity against human HUVEC cells assessed as cell viability incubated for 72 hrs by MTT assay; assay type: toxicity, cell-based
[14] = Cytotoxicity against human HaCaT cells assessed as inhibition of cell growth; assay type: toxicity, cell-based
cells = settings: Homo sapiens, CDDP-resistant A549 cell, 72 h
Description: Antiproliferative activity against human CDDP-resistant A549 cell assessed as cell viability incubated for 72 hrs by MTT assay

BXPC-3 [15] = assay: cells; settings: Homo sapiens, BXPC-3, 72 h
Description: Antiproliferative activity against human BXPC-3 cells assessed as cell viability incubated for 72 hrs by MTT assay

MDA-MB-231 = assay: cells; settings: Homo sapiens, MDA-MB-231, 72 h
Description: Antiproliferative activity against human MDA-MB-231 cells assessed as cell viability incubated for 72 hrs by MTT assay

[16] = Cmax in Sprague-Dawley rat at 50 mg/kg, po; assay type: ADME, organism-based; settings: in vivo
[17] = Cytotoxicity against human MCF-10A cells assessed as inhibition of cell growth; assay type: toxicity, cell-based
[18] = AUC (0 to last) in Sprague-Dawley rat at 50 mg/kg, po; assay type: ADME, organism-based; settings: in vivo, po, 50 mg/kg
[19] = Half life in Sprague-Dawley rat at 5 mg/kg, iv; assay type: ADME, organism-based; settings: in vivo
BXPC-3 [20] = assay: Antitumor activity against human BXPC-3 cells xenografted in mouse assessed as reduction in tumor weight at 50 mg/kg, po administered for 14 days; assay type: functional; design: scale not given: the % may be the effect or the level left; settings: time 14 day
A549 = assay: cells; settings: Homo sapiens, A549, 72 h
Description: Antiproliferative activity against human A549 cells assessed as cell viability incubated for 72 hrs by MTT assay

[21] = Volume of distribution at steady state in Sprague-Dawley rat at 5 mg/kg, iv; assay type: ADME, organism-based; settings: in vivo, read-out: Vdss

Sequence of Tyrosine-protein kinase receptor UFO (Homo sapiens) (P30530 whole entry): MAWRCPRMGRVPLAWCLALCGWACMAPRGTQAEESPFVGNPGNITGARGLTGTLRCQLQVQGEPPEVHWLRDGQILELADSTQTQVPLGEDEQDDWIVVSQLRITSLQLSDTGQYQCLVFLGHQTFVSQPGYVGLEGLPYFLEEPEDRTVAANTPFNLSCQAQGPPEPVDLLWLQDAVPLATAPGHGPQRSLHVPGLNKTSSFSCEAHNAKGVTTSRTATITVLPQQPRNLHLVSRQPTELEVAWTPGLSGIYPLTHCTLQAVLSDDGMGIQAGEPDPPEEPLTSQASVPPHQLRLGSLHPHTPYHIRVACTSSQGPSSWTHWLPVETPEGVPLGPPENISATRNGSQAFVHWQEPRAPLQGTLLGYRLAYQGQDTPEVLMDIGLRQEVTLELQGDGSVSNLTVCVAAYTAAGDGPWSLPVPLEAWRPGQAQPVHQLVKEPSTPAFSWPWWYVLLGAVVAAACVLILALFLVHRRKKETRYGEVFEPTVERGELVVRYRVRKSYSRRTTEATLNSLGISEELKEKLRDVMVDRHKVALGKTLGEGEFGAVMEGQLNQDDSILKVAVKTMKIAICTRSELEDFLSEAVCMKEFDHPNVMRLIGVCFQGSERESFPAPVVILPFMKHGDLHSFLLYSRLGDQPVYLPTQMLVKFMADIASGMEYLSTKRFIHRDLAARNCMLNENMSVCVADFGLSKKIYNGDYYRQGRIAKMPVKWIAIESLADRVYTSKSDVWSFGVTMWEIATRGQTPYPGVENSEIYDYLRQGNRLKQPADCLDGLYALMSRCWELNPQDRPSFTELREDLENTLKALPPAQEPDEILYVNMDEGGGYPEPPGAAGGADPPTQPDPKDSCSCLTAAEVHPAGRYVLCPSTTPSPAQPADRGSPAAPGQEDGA

inhibition [1]: 32.1%
clearance [3]: 111 mL/min/kg
IC50 [4]: > 10 µM
IC50 (PC-9): > 10 µM
AUClast [5]: 749 ng·h/mL
IC50 (NCI-H1975): > 10 µM
IC50 (SW480): > 10 µM
Tmax [6]: 2 h
half-life [7]: 0.194 h
IC50 (MKN-45): > 10 µM
IC50 (A549/TR): 10 µM
half-life [10]: 3.99 h
F [11]: 7.91%
IC50 (cells): > 10 µM
IC50 (BXPC-3 [15]): 5.34 µM
IC50 (MDA-MB-231): > 10 µM
Cmax [16]: 64.2 ng/mL
AUClast [18]: 64.2 ng·h/mL
half-life [19]: 1.76 h
IC50 (A549): > 10 µM
Vd [21]: 7.91 L/kg
SMILES: COC(=O)c1ccc2c(c1)NC(=O)/C2=C(\Nc1ccc(N(C)C(=O)CN2CCN(C)CC2)cc1)c1ccccc1 [NINTEDANIB]
IC50 at 72 h [2]: 4.34 µM
IC50 [8]: 2.87 µM
inhibition in vivo at 50 mg/kg (BXPC-3 [9]): 68.1%
IC50 [12]: 3.46 µM
IC50 at 72 h [13]: 3.69 µM
IC50 [14]: > 10 µM
IC50 [17]: > 10 µM
Activity (BXPC-3 [20]): 55.84%

From ChEMBL document CHEMBL6087458, “The Discovery of a Novel AXL/Triple Angiokinase Inhibitor Based on 6-Chloro-Substituted Indolinone and Side Chain Methyl Substitution Inhibiting Pancreatic Cancer Growth and Metastasis” (J Med Chem, 2025)
